Counter-ions that a name gives are not always drawn.
Experiments:
CYP1A2 = biological target: T1, CYP1A2 (Homo sapiens, UniProt P05177); test: CYP inhibition profile; format: in vitro ADME; conditions: compound 10 μM
T1 sequence (P05177 1-516): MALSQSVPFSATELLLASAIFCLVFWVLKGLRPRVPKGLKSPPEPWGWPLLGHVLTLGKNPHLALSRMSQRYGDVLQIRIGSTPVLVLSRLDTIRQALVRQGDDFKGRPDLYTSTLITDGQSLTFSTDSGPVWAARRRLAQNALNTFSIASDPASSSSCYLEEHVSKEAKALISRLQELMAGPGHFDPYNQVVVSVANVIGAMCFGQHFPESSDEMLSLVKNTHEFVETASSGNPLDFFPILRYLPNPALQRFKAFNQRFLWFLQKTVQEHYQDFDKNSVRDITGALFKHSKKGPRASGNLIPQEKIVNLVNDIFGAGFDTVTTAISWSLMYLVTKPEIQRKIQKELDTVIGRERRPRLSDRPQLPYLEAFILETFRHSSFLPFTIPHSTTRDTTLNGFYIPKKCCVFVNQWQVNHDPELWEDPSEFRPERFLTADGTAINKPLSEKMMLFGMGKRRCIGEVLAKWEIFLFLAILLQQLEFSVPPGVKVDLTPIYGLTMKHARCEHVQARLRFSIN
Text: Table 3. CYP inhibition profile. | column: % inhibition / CYP1A2

CYP2C9 = CYP2C9 (Homo sapiens, UniProt P11712); test: CYP inhibition profile; format: in vitro ADME; conditions: compound 10 μM
Text: Table 3. CYP inhibition profile. | column: % inhibition / CYP2C9

CYP2C19 = CYP2C19 (Homo sapiens, UniProt P33261); test: CYP inhibition profile; format: in vitro ADME; conditions: compound 10 μM
Text: Table 3. CYP inhibition profile. | column: % inhibition / CYP2C19

CYP2D6 = CYP2D6 (Homo sapiens, UniProt P10635); test: CYP inhibition profile; format: in vitro ADME; conditions: compound 10 μM
Text: Table 3. CYP inhibition profile. | column: % inhibition / CYP2D6

[1] = pharmacokinetics in BALB/c mice; format: in vivo
THP-1 cells = test: cell viability assay (MTS); format: cell-based, human; conditions: all concentrations tested
Description: Cell viability assay was performed using residual cells after luciferase assay. Cells were analysed using CellTiter 96 Aqueous One Solution Proliferation Assay (MTS, Promega) according to the manufactural protocols. Absorbance signal were measured using microplate reader (TECAN). Results were normalized using DMSO as a control.

[2] = system: phosphorylation of IRF3 in THP-1 cells; test: western blot of STING downstream signalling; format: cell-based, human; conditions: cGAMP (1 μg/mL) then 18p, 6 h
Description: (§1) To evaluate whether 18p induced desired immune response via activation of STING pathway, we investigated the activation of downstream effector proteins, IRF3 and STAT1 that were known as major regulatory proteins of STING and IFN-β, respectively.
(§2) Figure 6. Western blot analysis for STING downstream signalling pathway. THP-1 cells were treated with cGAMP (1 μg/mL) first, and then treated with either DMSO or 18p at indicated concentration for 6 h. Tubulin was used as a loading control.
(§3) Cells were washed by PBS and harvested with RIPA buffer (Bioseasang). After centrifugation with 20,000 × g for 20 min at 4 °C. Cell lysates were separated by SDS-polyacrylamide gel electrophoresis and transferred on PVDF membranes through the Trans-Blot Turbo Transfer System (Bio-Rad). The membranes were blocked in 5% BSA in TBST for 1 h at room temperature and followed by incubation with primary antibody solution for overnight. […] After washing with TBST, all antibodies were detected by anti-rabbit-HRP-linked secondary antibody (Cell signalling/no. 7074, 1:3000). β-Tubulin was used as a loading control for the amount of total protein. Luminescence signal was detected using ECL reagent and immunoreactive bands were captured with the ChemiDoc imaging systems (Bio-Rad).

[3] = system: phosphorylation of STAT1 in THP-1 cells; test: western blot of STING downstream signalling; format: cell-based, human; conditions: cGAMP (1 μg/mL) then 18p, 6 h
Description: as §1, §2, §3

[4] = body weight in 4T1 syngeneic mouse tumour model; format: in vivo, BALB/c mice; conditions: 40 mg/kg orally once daily, two weeks, 4T1 tumour-bearing mice
Description: Thus, we evaluated the anti-cancer efficacy in the 4T1 syngeneic mouse tumour model to test the therapeutic potential of 18p. We postulated the marginal amount of cGAMP released by tumour could initiate the synergy effect of 18p, then administrated the compound by single-treatment[5]. After 4T1 tumour cells were implanted and grown in the flank of mice, 18p was orally administered (40 mg/kg) once daily and monitored the tumour volume and body weight of each mouse.
Figure 7. 4 × 10^5 of 4T1 cells were subcutaneously inoculated into right side flank of BLAB/c mice (n = 6). Mice were orally administrated by 18p (40 mg/kg) or vehicle by every day. (a) Tumour growth curve of 18p or vehicle. X-axis indicates days after treatment. (b) Tumour growth (%) on day 14. (c) Body weight of 18p or vehicle. X-axis indicates days after treatment. Statistics for tumour volume and tumour growth were analysed by 2way ANOVA and student t-test. *p < 0.05. **p < 0.01. Graphs are depicted by mean and SD.
The study for murine 4T1 […] was approved by the Institutional Animal Care and Use Committee (IACUC) of the Korea Institute of Science and Technology (KIST-2021–04-048). Female BALB/c mice were 8 weeks obtained from DBL (Korea). […] Tumour volume was calculated by following formula: Tumour volume (mm^3) = 0.5 × [length, (mm) × width, (mm)2].

[5] = system: IP-10 secretion in THP-1 cells; test: IP-10 cytokine secretion by ELISA; conditions: co-treatment with cGAMP, 8 h
Description: Extracellular secretion of IFN-β and IP-10 was measured by enzyme-linked immunosorbent assay (ELISA).
THP-1 cells were seeded in 96 well plate and treated with the compounds for 8 h incubation. 100 μL of cell culture supernatant was harvested and analysed using manufactural protocols.

[6] = system: ISRE-mediated reporter gene induction in THP-1 cells; test: ISRE/IRF luciferase reporter assay in THP-1 dual cells with cGAMP; conditions: co-treatment with cGAMP (1 μg/mL), 24 h

Chain of CYP2C19 (P33261 whole entry): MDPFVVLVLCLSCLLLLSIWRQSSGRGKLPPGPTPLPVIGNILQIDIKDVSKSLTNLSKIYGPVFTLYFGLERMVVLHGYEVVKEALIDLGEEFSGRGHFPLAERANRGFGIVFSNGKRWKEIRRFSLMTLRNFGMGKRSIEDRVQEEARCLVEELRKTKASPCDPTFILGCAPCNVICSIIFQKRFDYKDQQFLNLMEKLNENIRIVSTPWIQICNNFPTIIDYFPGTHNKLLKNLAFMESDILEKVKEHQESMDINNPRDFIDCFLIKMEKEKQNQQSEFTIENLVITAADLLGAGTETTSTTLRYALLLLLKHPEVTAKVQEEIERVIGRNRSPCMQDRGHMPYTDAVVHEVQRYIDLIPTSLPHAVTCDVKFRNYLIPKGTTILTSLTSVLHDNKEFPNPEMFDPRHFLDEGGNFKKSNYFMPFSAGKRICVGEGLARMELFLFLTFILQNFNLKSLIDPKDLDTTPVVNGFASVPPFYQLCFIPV
Chain of CYP2C9 (P11712 whole entry): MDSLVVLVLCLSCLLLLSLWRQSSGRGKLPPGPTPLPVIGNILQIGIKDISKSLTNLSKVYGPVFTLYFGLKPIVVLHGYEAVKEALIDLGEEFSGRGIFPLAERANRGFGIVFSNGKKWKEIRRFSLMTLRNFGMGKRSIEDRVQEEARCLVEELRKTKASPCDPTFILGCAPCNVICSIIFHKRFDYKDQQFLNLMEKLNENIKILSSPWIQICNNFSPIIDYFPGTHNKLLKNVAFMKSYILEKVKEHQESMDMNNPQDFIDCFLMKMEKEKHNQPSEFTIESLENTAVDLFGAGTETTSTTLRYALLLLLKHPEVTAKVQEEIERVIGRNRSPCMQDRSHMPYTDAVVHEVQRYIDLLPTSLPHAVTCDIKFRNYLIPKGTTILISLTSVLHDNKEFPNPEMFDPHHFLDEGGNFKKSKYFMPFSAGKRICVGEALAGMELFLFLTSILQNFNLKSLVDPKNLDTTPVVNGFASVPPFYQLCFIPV
Chain of CYP2D6 (P10635 whole entry): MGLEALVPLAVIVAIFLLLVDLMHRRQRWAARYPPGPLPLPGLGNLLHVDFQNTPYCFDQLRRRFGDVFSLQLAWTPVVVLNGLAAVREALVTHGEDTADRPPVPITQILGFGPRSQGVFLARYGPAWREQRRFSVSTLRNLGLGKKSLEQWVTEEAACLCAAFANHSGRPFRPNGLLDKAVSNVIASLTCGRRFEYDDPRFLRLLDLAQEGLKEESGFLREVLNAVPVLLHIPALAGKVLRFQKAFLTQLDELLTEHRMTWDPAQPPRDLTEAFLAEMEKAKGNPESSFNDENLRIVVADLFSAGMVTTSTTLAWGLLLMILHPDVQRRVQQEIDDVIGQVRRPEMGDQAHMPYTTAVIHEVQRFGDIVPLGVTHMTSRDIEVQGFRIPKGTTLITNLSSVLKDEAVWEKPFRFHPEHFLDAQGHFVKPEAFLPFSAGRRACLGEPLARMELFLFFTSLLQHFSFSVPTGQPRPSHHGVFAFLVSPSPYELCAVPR

% inhibition CYP1A2 (CYP1A2): 12.0%
% inhibition CYP2C9 (CYP2C9): 0.0%
% inhibition CYP2C19 (CYP2C19): 10.3%
% inhibition CYP2D6 (CYP2D6): 0.5%
CI ([1]; IV, 1 mg/kg): 125 mL/min/kg
AUC ([1]; mouse, plasma, IV, 1 mg/kg): 126 ng·h/mL
AUC(0-t) ([1]; mouse, plasma, IV, 1 mg/kg): 125 ng·h/mL
Cmax ([1]; mouse, plasma, IV, 1 mg/kg): 303 ng/mL
Tmax ([1]; mouse, plasma, IV, 1 mg/kg): 4.98 min
half-life ([1]; mouse, plasma, IV, 1 mg/kg): 15 min
Vd ([1]; mouse, plasma, IV, 1 mg/kg, read-out: Vss): 2.3 L/kg
bioavailability ([1]; mouse, plasma, PO 10 mg/kg vs IV 1 mg/kg): > 100%
AUC ([1]; mouse, plasma, PO, 10 mg/kg): 1700 ng·h/mL
AUC(0-t) ([1]; mouse, plasma, PO, 10 mg/kg): 1690 ng·h/mL
Cmax ([1]; mouse, plasma, PO, 10 mg/kg): 1550 ng/mL
Tmax ([1]; mouse, plasma, PO, 10 mg/kg): 30 min
half-life ([1]; mouse, plasma, PO, 10 mg/kg): 93.6 min
SMILES: CC1(CNS(N)(=O)=O)CCN(c2ncnc3[nH]ccc23)CC1 [18p, N-((4-Methyl-1-(7H-pyrrolo[2,3-d]pyrimidin-4-yl)piperidin-4-yl)methyl)methanesulfamide hydrochloride]
cell viability / toxicity (THP-1 cells): no obvious toxicity
phosphorylation of IRF3 [2]: increased phosphorylation of IRF3 and STAT1 was observed in dose-dependent manner
phosphorylation of STAT1 [3]: increased phosphorylation of IRF3 and STAT1 was observed in dose-dependent manner
body weight [4]: no weight loss
IP-10 cytokine secretion [5]: secreted more cytokine than with cGAMP alone
cGAMP-induced ISRE activation (luciferase signal) [6]: clearly increased the cGAMP-induced ISRE activation in dose-dependent manner
